Laboratory results published in patent US9580463B2 (BRISTOL-MYERS SQUIBB COMPANY, priority 2013, dated 2017).

The molecules below were run on HCV genotype 1b (Con1) replicon in HUH-7 cells (assay: HCV replicon luciferase reporter assay, genotype 1b). Details: Hepatitis C virus, 72 h, genotype 1b replicon, 3 days incubation, read-out: LE_1b (EC50, range).
Format: cell-based
Description: An HCV replicon whole cell system was established as described by Lohmann V, Korner F, Koch J, Herian U, Theilmann L, Bartenschlager R., Science 285(5424):110-3 (1999) and modified to introduce a luciferase reporter, as first described by Krieger et al (Krieger N, Lohmann V, and Bartenschlager R, J. Virol. 75(10):4614-4624 (2001)). CDNA encoding a humanized form of the Renilla luciferase gene and a linker sequence fused directly to the 3′-end of the luciferase gene were introduced into the replicon construct using an Asc1 restriction site located in core, directly upstream of the neomycin marker gene. The adaptive mutation at position 1179 (serine to isoleucine) was also introduced (Blight K J, Kolykhalov, A A, Rice, C M, Science 290(5498):1972-1974). A stable cell line constitutively expressing this HCV replicon construct was generated by first linearizing plasmid DNAs with ScaI. RNA transcripts were synthesized in vitro using the T7 MegaScript transcription kit (Ambion, Austin, Tex.) according to manufacturer's directions. In vitro transcripts of the cDNA were transfected into the human hepatoma cell line, HUH-7. […] Resulting cell lines were characterized for positive and negative strand RNA production and protein production over time. […]
HCV replicon luciferase assays were developed to monitor the inhibitory effects of compounds described in the disclosure on HCV genotypes 1a and 1b viral replication. HUH-7 cells, constitutively expressing the HCV replicon, were grown in Dulbecco's Modified Eagle Media (DMEM) (Gibco-BRL) containing 10% Fetal calf serum (FCS) (Sigma) and 1 mg/mL G418 (Gibco-BRL). Compounds were serially diluted 3 folds in DMSO for a twenty-point titration and subsequently transferred to sterile 384-well tissue-culture treated plates (Corning cat #3571). The plates were then seeded with 50 μL of cells at a density of 3.0×10^3 cells/well in DMEM containing 4% FCS (final DMSO concentration at 0.5%). After 3 days incubation at 37° C., cells were analyzed for Renilla Luciferase activity using the EnduRen as substrate (Promega cat #E6485). The EnduRen substrate was diluted in DMEM and then added to the plates to a final concentration of 7.5 μM. The plates were incubated for 2 hrs at 37° C. and then read immediately for 30 seconds with Viewlux Imager (PerkinElmer) using a luminescence program. To assess cytotoxicity of compounds, CC50 values were generated by multiplexing the EnduRen-containing plates with Cell Titer-Blue (Promega, cat # G8082). Cell-Titer Blue (3 μL) was added to each well and incubated for 8 hrs at 37° C. The fluorescence signal from each well was read, with an excitation wavelength at 525/10 nm and an emission wavelength of 598/10 nm, using the Viewlux Imager.
The EC50 values for compounds were calculated by using a four-parameter logistic equation: y=A+((B−A)/(1+((C/x)^D))), where A and B denotes minimal and maximal % inhibition, respectively, C is the EC50, D is the hill slope and x represents compound concentration.

| SMILES | EC50 |
| --- | --- |
| CCOc1ccc2nc(C(F)(F)F)c(O[C@@H]3C[C@H]4C(=O)N[C@]5(C(=O)NS(=O)(=O)C6(C)CC6)C[C@H]5/C=C\CC[C@H](C)C[C@@H](COC)[C@H](NC(=O)OC(C)(C)C)C(=O)N4C3)nc2c1 [Compound 1049, tert-butyl ((2R,6S,7R,9S,13aS,14aR,16aS,Z)-2-((7-ethoxy-3-(trifluoromethyl)quinoxalin-2-yl)oxy)-7-(methoxymethyl)-9-methyl-14a-(((1-methylcyclopropyl)sulfonyl)carbamoyl)-5,16-dioxo-1,2,3,5,6,7,8,9,10,11,13a,14,14a,15,16,16a-hexadecahydrocyclopropa[e]pyrrolo[1,2-a][1,4]diazacyclopentadecin-6-yl)carbamate] | 1.01 to 5 nM |
| COC[C@@H]1C[C@H](C)CC/C=C\[C@@H]2C[C@@]2(C(=O)NS(=O)(=O)C2(C)CC2)NC(=O)[C@@H]2C[C@@H](Oc3nc(OC)c4c(OC)cccc4n3)CN2C(=O)[C@H]1NC(=O)OC(C)(C)C [Compound 1061, tert-butyl ((2R,6S,7R,9R,13aS,14aR,16aS,Z)-2-((4,5-dimethoxyquinazolin-2-yl)oxy)-7-(methoxymethyl)-9-methyl-14a-(((1-methylcyclopropyl)sulfonyl)carbamoyl)-5,16-dioxo-1,2,3,5,6,7,8,9,10,11,13a,14,14a,15,16,16a-hexadecahydrocyclopropa[e]pyrrolo[1,2-a][1,4]diazacyclopentadecin-6-yl)carbamate] | 5.01 to 35 nM |
| COC[C@@H]1C[C@H](C)CC/C=C\[C@@H]2C[C@@]2(C(=O)NS(=O)(=O)C2(C)CC2)NC(=O)[C@@H]2C[C@@H](Oc3nc4cc(OC(C)C)ccc4nc3C(F)(F)F)CN2C(=O)[C@H]1NC(=O)OC(C)(C)C(C)(F)F [Compound 1056, 3,3-difluoro-2-methylbutan-2-yl ((2R,6S,7R,9R,13aS,14aR,16aS,Z)-2-((7-isopropoxy-3-(trifluoromethyl)quinoxalin-2-yl)oxy)-7-(methoxymethyl)-9-methyl-14a-(((1-methylcyclopropyl)sulfonyl)carbamoyl)-5,16-dioxo-1,2,3,5,6,7,8,9,10,11,13a,14,14a,15,16,16a-hexadecahydrocyclopropa[e]pyrrolo[1,2-a][1,4]diazacyclopentadecin-6-yl)carbamate] | 0.1 to 0.5 nM |
| CCOc1ccc2nc(C(F)(F)F)c(O[C@@H]3C[C@H]4C(=O)N[C@]5(C(=O)NS(=O)(=O)C6(C)CC6)C[C@H]5/C=C\CC[C@@H](C)C[C@@H](COC)[C@H](NC(=O)OC(C)(C)C(F)(F)F)C(=O)N4C3)nc2c1 [Compound 1054, 1,1,1-trifluoro-2-methylpropan-2-yl ((2R,6S,7R,9R,13aS,14aR,16aS,Z)-2-((7-ethoxy-3-(trifluoromethyl)quinoxalin-2-yl)oxy)-7-(methoxymethyl)-9-methyl-14a-(((1-methylcyclopropyl)sulfonyl)carbamoyl)-5,16-dioxo-1,2,3,5,6,7,8,9,10,11,13a,14,14a,15,16,16a-hexadecahydrocyclopropa[e]pyrrolo[1,2-a][1,4]diazacyclopentadecin-6-yl)carbamate] | 0.1 to 0.5 nM |
| COC[C@@H]1C[C@@H](C)CC/C=C\[C@@H]2C[C@@]2(C(=O)NS(=O)(=O)C2(C)CC2)NC(=O)[C@@H]2C[C@@H](Oc3nc(OC)c4c(OC)cccc4n3)CN2C(=O)[C@H]1NC(=O)OC(C)(C)C(F)(F)F [Compound 1059, 1,1,1-trifluoro-2-methylpropan-2-yl ((2R,6S,7R,9S,13aS,14aR,16aS,Z)-2-((4,5-dimethoxyquinazolin-2-yl)oxy)-7-(methoxymethyl)-9-methyl-14a-(((1-methylcyclopropyl)sulfonyl)carbamoyl)-5,16-dioxo-1,2,3,5,6,7,8,9,10,11,13a,14,14a,15,16,16a-hexadecahydrocyclopropa[e]pyrrolo[1,2-a][1,4]diazacyclopentadecin-6-yl)carbamate] | 35 to 620 nM |
| CCOc1cnc(O[C@@H]2C[C@H]3C(=O)N[C@]4(C(=O)NS(=O)(=O)C5(C)CC5)C[C@H]4/C=C\CC[C@H](C)C[C@@H](COC)[C@H](NC(=O)OC(C)(C)C)C(=O)N3C2)c2ccc(OC)cc12 [Compound 1063, tert-butyl ((2R,6S,7R,9S,13aS,14aR,16aS,Z)-2-((4-ethoxy-6-methoxyisoquinolin-1-yl)oxy)-7-(methoxymethyl)-9-methyl-14a-(((1-methylcyclopropyl)sulfonyl)carbamoyl)-5,16-dioxo-1,2,3,5,6,7,8,9,10,11,13a,14,14a,15,16,16a-hexadecahydrocyclopropa[e]pyrrolo[1,2-a][1,4]diazacyclopentadecin-6-yl)carbamate] | 0.1 to 0.5 nM |
| COC[C@@H]1C[C@@H](C)CC/C=C\[C@@H]2C[C@@]2(C(=O)NS(=O)(=O)C2(C)CC2)NC(=O)[C@@H]2C[C@@H](Oc3nc4cc(OC(C)C)ccc4nc3C(F)(F)F)CN2C(=O)[C@H]1NC(=O)OC(C)(C)C(C)(F)F [Compound 1055, 3,3-difluoro-2-methylbutan-2-yl ((2R,6S,7R,9S,13aS,14aR,16aS,Z)-2-((7-isopropoxy-3-(trifluoromethyl)quinoxalin-2-yl)oxy)-7-(methoxymethyl)-9-methyl-14a-(((1-methylcyclopropyl)sulfonyl)carbamoyl)-5,16-dioxo-1,2,3,5,6,7,8,9,10,11,13a,14,14a,15,16,16a-hexadecahydrocyclopropa[e]pyrrolo[1,2-a][1,4]diazacyclopentadecin-6-yl)carbamate] | 1.01 to 5 nM |
| COC[C@@H]1C[C@@H](C)CC/C=C\[C@@H]2C[C@@]2(C(=O)NS(=O)(=O)C2(C)CC2)NC(=O)[C@@H]2C[C@@H](Oc3nc4cc(OC)c(F)cc4nc3C(F)(F)F)CN2C(=O)[C@H]1NC(=O)OC(C)(C)C [Compound 1045, tert-butyl ((2R,6S,7R,9S,13aS,14aR,16aS,Z)-2-((6-fluoro-7-methoxy-3-(trifluoromethyl)quinoxalin-2-yl)oxy)-7-(methoxymethyl)-9-methyl-14a-(((1-methylcyclopropyl)sulfonyl)carbamoyl)-5,16-dioxo-1,2,3,5,6,7,8,9,10,11,13a,14,14a,15,16,16a-hexadecahydrocyclopropa[e]pyrrolo[1,2-a][1,4]diazacyclopentadecin-6-yl)carbamate] | 1.01 to 5 nM |
| COC[C@@H]1C[C@@H](C)CC/C=C\[C@@H]2C[C@@]2(C(=O)NS(=O)(=O)C2(C)CC2)NC(=O)[C@@H]2C[C@@H](Oc3nc4cc(OC(C)C)ccc4nc3C(F)(F)F)CN2C(=O)[C@H]1NC(=O)OC(C)(C)C(F)(F)F [Compound 1057, 1,1,1-trifluoro-2-methylpropan-2-yl ((2R,6S,7R,9S,13aS,14aR,16aS,Z)-2-((7-isopropoxy-3-(trifluoromethyl)quinoxalin-2-yl)oxy)-7-(methoxymethyl)-9-methyl-14a-(((1-methylcyclopropyl)sulfonyl)carbamoyl)-5,16-dioxo-1,2,3,5,6,7,8,9,10,11,13a,14,14a,15,16,16a-hexadecahydrocyclopropa[e]pyrrolo[1,2-a][1,4]diazacyclopentadecin-6-yl)carbamate] | 5.01 to 35 nM |
| CCOc1cnc(O[C@@H]2C[C@H]3C(=O)N[C@]4(C(=O)NS(=O)(=O)C5(C)CC5)C[C@H]4/C=C\CC[C@@H](C)C[C@@H](COC)[C@H](NC(=O)OC(C)(C)C)C(=O)N3C2)c2ccc(OC)cc12 [Compound 1064, tert-butyl ((2R,6S,7R,9R,13aS,14aR,16aS,Z)-2-((4-ethoxy-6-methoxyisoquinolin-1-yl)oxy)-7-(methoxymethyl)-9-methyl-14a-(((1-methylcyclopropyl)sulfonyl)carbamoyl)-5,16-dioxo-1,2,3,5,6,7,8,9,10,11,13a,14,14a,15,16,16a-hexadecahydrocyclopropa[e]pyrrolo[1,2-a][1,4]diazacyclopentadecin-6-yl)carbamate] | 0.1 to 0.5 nM |
| CCOc1cnc(O[C@@H]2C[C@H]3C(=O)N[C@]4(C(=O)NS(=O)(=O)C5(C)CC5)C[C@H]4/C=C\CC[C@@H](C)C[C@@H](COC)[C@H](NC(=O)OC(C)(C)C(C)(F)F)C(=O)N3C2)c2ccc(OC)cc12 [Compound 1068, 3,3-difluoro-2-methylbutan-2-yl ((2R,6S,7R,9R,13aS,14aR,16aS,Z)-2-((4-ethoxy-6-methoxyisoquinolin-1-yl)oxy)-7-(methoxymethyl)-9-methyl-14a-(((1-methylcyclopropyl)sulfonyl)carbamoyl)-5,16-dioxo-1,2,3,5,6,7,8,9,10,11,13a,14,14a,15,16,16a-hexadecahydrocyclopropa[e]pyrrolo[1,2-a][1,4]diazacyclopentadecin-6-yl)carbamate] | 0.1 to 0.5 nM |
